Source: patent publication US9023789B2, “Amylin analogs and pharmaceutical compositions thereof” (Novo Nordisk A/S, priority 2012, dated 2015)
Read-outs that look alike come from different tables or passages of the source. Numbered stars: 1 amine (or outer) side, 2 acyl side, 3 side chain; on linkers, the order of the positions; unused ones are H or OH. Bridge positions count the residues as written; N and C are the ends. Side chains are listed from the residue outwards. Peptide text beside a SMILES is read from it. * marks the point of attachment. C20 diacid = O=C(O)CCCCCCCCCCCCCCCCCCC(=O)*; γGlu = O=C(O)[C@H](CCC(=O)[*:2])N[*:1]

Key:
[1] = biological target: T1, human calcitonin (a) receptor in BHK570 cells (Homo sapiens, UniProt P30988); assay: ASSAY (II)a functional assay, human calcitonin receptor (CRE luciferase); type: cell-based; details: read-out: hCTR funct. EC50
T1 construct: expressed in transfected cells
T1 sequence (P30988 25-474): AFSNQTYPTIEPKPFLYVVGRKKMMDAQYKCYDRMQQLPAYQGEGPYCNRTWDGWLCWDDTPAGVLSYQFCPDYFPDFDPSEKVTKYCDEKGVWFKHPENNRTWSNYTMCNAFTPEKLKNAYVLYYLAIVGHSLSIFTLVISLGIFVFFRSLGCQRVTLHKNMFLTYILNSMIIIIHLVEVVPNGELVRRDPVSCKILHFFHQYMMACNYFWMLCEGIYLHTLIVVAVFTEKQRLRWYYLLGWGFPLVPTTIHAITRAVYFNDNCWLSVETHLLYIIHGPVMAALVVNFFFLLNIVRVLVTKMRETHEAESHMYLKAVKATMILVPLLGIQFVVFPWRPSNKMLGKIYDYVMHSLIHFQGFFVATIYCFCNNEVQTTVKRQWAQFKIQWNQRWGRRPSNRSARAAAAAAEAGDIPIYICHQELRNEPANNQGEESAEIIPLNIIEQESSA
Procedure, shortened: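 Cells were seeded and cultured overnight, then incubated with standard or sample for 3 h at 37° C in serum-containing medium at pH 7.4. The medium was then swapped for PBS, LucLite was added for 30 min at room temperature, and luminescence was recorded. Cells were BHK with CRE-luc and calcitonin receptor, ± RAMP-3.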

[2] = ASSAY (IV) determination of solubility; type: physicochemical
Procedure, shortened: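 Polypeptide in water at […] mixed 1:1 with 100 mM buffers of pH 3.0-8.0 (glycylglycine pH 3-5, bistrispropane pH 6-8). Held 18 h at room temperature, then centrifuged; concentration remaining in solution measured by UPLC.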

[3] = biological target: T2, human amylin receptor (membranes from Amylin 3(a)/CRE-luc cells) (Homo sapiens, UniProt O60896+P30988); assay: ASSAY (V) binding to the human amylin receptor (SPA, 125I-rat amylin); details: for IC50: Table 4, read-out: hAmylin-R bind IC50;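 as to all read-outs here: competition binding of cell membranes (35 ng/µL) mixed with SPA beads in 384-well plates at 40 µL total volume, read by scintillation counting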
T2 construct: expressed in transfected cells
T2 sequence (P30988 25-474): T1 sequence (P30988 25-474)
T2 sequence (O60896 24-148 partner): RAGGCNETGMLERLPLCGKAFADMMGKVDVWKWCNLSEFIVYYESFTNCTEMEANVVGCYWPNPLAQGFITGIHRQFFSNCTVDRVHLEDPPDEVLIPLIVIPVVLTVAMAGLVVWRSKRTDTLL

[4] = biological target: T3, rat amylin receptor (rat calcitonin receptor + rat RAMP 3) (Rattus norvegicus, UniProt P32214+Q9JJ73); assay: ASSAY (VI) binding to the rat amylin receptor; details: Table 7
T3 construct: expressed in transfected cells; host or cells: BHK tk'ts 13 (transient, FuGENE 6), membranes
T3 sequence (P32214 25-479 isoform P32214-2 limits assumed): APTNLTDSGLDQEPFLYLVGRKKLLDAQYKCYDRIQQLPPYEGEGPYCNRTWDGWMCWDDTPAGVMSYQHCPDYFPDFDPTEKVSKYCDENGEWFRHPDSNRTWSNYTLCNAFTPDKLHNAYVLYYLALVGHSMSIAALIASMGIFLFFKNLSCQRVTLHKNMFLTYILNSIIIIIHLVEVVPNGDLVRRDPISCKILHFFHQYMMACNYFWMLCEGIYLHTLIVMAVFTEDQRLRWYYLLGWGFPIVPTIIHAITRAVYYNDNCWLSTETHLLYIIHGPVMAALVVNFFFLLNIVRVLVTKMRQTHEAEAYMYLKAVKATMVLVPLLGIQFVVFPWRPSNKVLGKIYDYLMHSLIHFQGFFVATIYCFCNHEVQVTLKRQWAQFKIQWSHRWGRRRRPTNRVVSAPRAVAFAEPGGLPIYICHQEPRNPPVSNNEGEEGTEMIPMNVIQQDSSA
T3 sequence (Q9JJ73 23-147 partner): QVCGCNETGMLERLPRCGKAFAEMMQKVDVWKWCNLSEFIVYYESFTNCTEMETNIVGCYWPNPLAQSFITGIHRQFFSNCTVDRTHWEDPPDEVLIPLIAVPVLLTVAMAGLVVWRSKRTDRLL
Procedure, shortened: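 Binding to the rat amylin receptor was determined with membrane preparations. The receptor was expressed by transiently transfecting BHK tk′ts 13 cells with rat calcitonin receptor, using FuGENE® 6 (Roche) according to the manufacturer's recommendations. Roughly 48 hours later the cells were harvested and their membranes isolated.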

[5] = biological target: T4, human calcitonin receptor (Homo sapiens, UniProt P30988); assay: ASSAY (VII) binding to the human calcitonin receptor (SPA, 125I-Calcitonin); details: read-out: hCTR bind IC50;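 also: cell membranes (35 ng/µL) combined with SPA beads in 40 µL of pH 7.4 Hepes buffer, 384-well format, signal counted on a TopCounter instrument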
T4 construct: expressed in transfected cells
T4 sequence (P30988 25-474): T1 sequence (P30988 25-474)

[6] = bistrispropane buffer, pH 6.5, read-out: Solubility pH 6.5 Concentration
[7] = bistrispropane buffer, pH 7.5, read-out: Solubility pH 7.5 Concentration
[8] = bistrispropane buffer, pH 6.0, read-out: Solubility pH 6.0 Concentration
[9] = bistrispropane buffer, pH 7.0, read-out: Solubility pH 7.0 Concentration
[10] = bistrispropane buffer, pH 8.0, read-out: Solubility pH 8.0 Concentration
[11] = glycylglycine buffer, pH 3.0, read-out: Solubility pH 3.0 Concentration
[12] = glycylglycine buffer, pH 4.0, read-out: Solubility pH 4.0 Concentration
[13] = glycylglycine buffer, pH 5.0, read-out: Solubility pH 5.0 Concentration
[14] = Table 5, selectivity, hCTR bind IC50 / hAmylin-R bind IC50
[15] = Table 7, human binding selectivity, included for comparison

| Ratio hCT/hAmylin binding ([3]; Table 5a, selectivity, hCTR bind IC50 / hAmylin-R bind IC50) | Ratio hCT/hAmylin binding ([3]; Table 5b, selectivity, hCTR bind IC50 / hAmylin-R bind IC50) | Ratio hCT/hAmylin binding ([3]; Table 5c, selectivity, hCTR bind IC50 / hAmylin-R bind IC50) | Ratio hCT/hAmylin binding ([3]; Table 7a (preferred compounds), human binding selectivity, included for comparison) | Ratio hCT/hAmylin binding ([3]; ratio of human calcitonin receptor binding IC50 to human amylin receptor binding IC50) | SMILES | EC50 [1] [pM] | solubility at 18 h [2, 6] [µM] | solubility at 18 h [2, 7] [µM] | solubility at 18 h [2, 8] [µM] | solubility at 18 h [2, 9] [µM] | solubility at 18 h [2, 10] [µM] | solubility at 18 h [2, 11] [µM] | solubility at 18 h [2, 12] [µM] | solubility at 18 h [2, 13] [µM] | IC50 [3] [pM] | Ratio hCT/hAmylin binding [3, 14] | Ratio hCT/hAmylin binding [3, 15] | IC50 ([4]; binding to rat amylin receptor, read-out: rAmylin-R bind IC50) [pM] | Ratio rCT/rAmylin binding ([4]; rat binding selectivity, rCTR IC50 / rAmylin-R IC50) | IC50 [5] [pM] |
| --- | --- | --- | --- | --- | --- | --- | --- | --- | --- | --- | --- | --- | --- | --- | --- | --- | --- | --- | --- | --- |
| – | – | – | – | – | CC[C@H](C)[C@H](NC(=O)[C@H](C)NC(=O)CNC(=O)[C@H](Cc1ccccc1)NC(=O)[C@H](CC(N)=O)NC(=O)[C@@H]1CCCN1C(=O)[C@H](CO)NC(=O)[C@H](CO)NC(=O)[C@H](Cc1c[nH]cn1)NC(=O)[C@H](CCCNC(=N)N)NC(=O)[C@H](CC(C)C)NC(=O)[C@H](Cc1ccccc1)NC(=O)[C@H](Cc1c[nH]cn1)NC(=O)[C@H](C)NC(=O)[C@H](CC(C)C)NC(=O)[C@H](CCCNC(=N)N)NC(=O)[C@H](CCC(N)=O)NC(=O)[C@@H](NC(=O)[C@H](C)NC(=O)[C@@H]1CSSC[C@H](NC(=O)[C@@H](N)CCCCNC(=O)CC[C@H](NC(=O)CCCCCCCCCCCCCCCCCCC(=O)O)C(=O)O)C(=O)N[C@@H](CC(N)=O)C(=O)N[C@@H]([C@@H](C)O)C(=O)N[C@@H](C)C(=O)N[C@@H]([C@@H](C)O)C(=O)N1)[C@@H](C)O)C(=O)N1CCC[C@H]1C(=O)N[C@@H](CO)C(=O)N[C@@H](CO)C(=O)N[C@H](C(=O)N[C@@H](CC(N)=O)C(=O)N[C@H](C(=O)NCC(=O)N1CCC[C@H]1C(=O)N[C@@H](CC(N)=O)C(=O)N[C@H](C(=O)N1CCC[C@H]1C(N)=O)[C@@H](C)O)C(C)C)[C@@H](C)O [Example 115] (H-K([γGlu-C20 diacid])CNTATCATQRLAHFLRHSSPNFGAIPSSTNVGPNTP-NH2; disulfide 2-7 (inferred); N-terminus assumed) | 40 | ≥ 200 | ≥ 200 | ≥ 200 | ≥ 200 | ≥ 200 | ≥ 200 | ≥ 200 | ≥ 200 | 131 | 1.2 | 1.2 | 125 | 3.0 | 157 |
| – | – | – | – | – | CC[C@H](C)[C@H](NC(=O)[C@H](C)NC(=O)CNC(=O)[C@H](Cc1ccccc1)NC(=O)[C@H](CC(N)=O)NC(=O)[C@@H]1CCCN1C(=O)[C@H](CO)NC(=O)[C@H](CO)NC(=O)[C@H](Cc1c[nH]cn1)NC(=O)[C@H](CCCNC(=N)N)NC(=O)[C@H](CC(C)C)NC(=O)[C@H](Cc1ccccc1)NC(=O)[C@H](CC(=O)O)NC(=O)[C@H](C)NC(=O)[C@H](CC(C)C)NC(=O)[C@H](CCCNC(=N)N)NC(=O)[C@H](CCC(N)=O)NC(=O)[C@@H](NC(=O)[C@H](C)NC(=O)[C@@H]1CSSC[C@H](NC(=O)[C@H](CCCCN)NC(=O)CC[C@H](NC(=O)CCCCCCCCCCCCCCCCCCC(=O)O)C(=O)O)C(=O)N[C@@H](CC(N)=O)C(=O)N[C@@H]([C@@H](C)O)C(=O)N[C@@H](C)C(=O)N[C@@H]([C@@H](C)O)C(=O)N1)[C@@H](C)O)C(=O)N1CCC[C@H]1C(=O)N[C@@H](CO)C(=O)N[C@@H](CO)C(=O)N[C@H](C(=O)N[C@@H](CC(N)=O)C(=O)N[C@H](C(=O)NCC(=O)N[C@@H](CO)C(=O)N[C@@H](CC(N)=O)C(=O)N[C@H](C(=O)N1CCC[C@H]1C(N)=O)[C@@H](C)O)C(C)C)[C@@H](C)O [Example 10] ({C20 diacid-γGlu}-KCNTATCATQRLADFLRHSSPNFGAIPSSTNVGSNTP-NH2; disulfide 2-7 (inferred)) | 70 | ≥ 200 | ≥ 200 | ≥ 200 | ≥ 200 | ≥ 200 | ≥ 200 | ≥ 200 | ≥ 200 | 82 | 1.2 | 1.2 | – | – | 99 |
| 26.0 | 26.0 | 26.0 | 26.0 | 26.0 | CC[C@H](C)[C@H](NC(=O)[C@H](C)NC(=O)CNC(=O)[C@H](Cc1ccccc1)NC(=O)[C@H](CC(N)=O)NC(=O)[C@@H]1CCCN1C(=O)[C@H](CO)NC(=O)[C@H](CO)NC(=O)[C@H](Cc1c[nH]cn1)NC(=O)[C@H](CCCNC(=N)N)NC(=O)[C@H](CC(C)C)NC(=O)[C@H](Cc1ccccc1)NC(=O)[C@H](CCC(=O)O)NC(=O)[C@H](C)NC(=O)[C@H](CC(C)C)NC(=O)[C@H](CCCNC(=N)N)NC(=O)[C@H](CCC(N)=O)NC(=O)[C@@H](NC(=O)[C@H](C)NC(=O)[C@@H]1CSSC[C@H](NC(=O)[C@H](CCCCN)NC(=O)CC[C@H](NC(=O)CC[C@H](NC(=O)CCCCCCCCCCCCCCCCCCC(=O)O)C(=O)O)C(=O)O)C(=O)N[C@@H](CC(N)=O)C(=O)N[C@@H]([C@@H](C)O)C(=O)N[C@@H](C)C(=O)N[C@@H]([C@@H](C)O)C(=O)N1)[C@@H](C)O)C(=O)N1CCC[C@H]1C(=O)N[C@@H](CO)C(=O)N[C@@H](CO)C(=O)N[C@H](C(=O)N[C@@H](CC(N)=O)C(=O)N[C@H](C(=O)NCC(=O)N[C@@H](CO)C(=O)N[C@@H](CC(N)=O)C(=O)N[C@H](C(=O)N[C@@H](Cc1ccc(O)cc1)C(N)=O)[C@@H](C)O)C(C)C)[C@@H](C)O [Example 15] ({C20 diacid-γGlu-γGlu}-KCNTATCATQRLAEFLRHSSPNFGAIPSSTNVGSNTY-NH2; disulfide 2-7 (inferred)) | 3430 | ≥ 200 | ≥ 200 | ≥ 200 | ≥ 200 | ≥ 200 | ≥ 200 | ≥ 200 | ≥ 200 | 597 | 26.0 | 26.0 | – | – | 15500 |
